# Experimental data reported in patent US10183936B2, “Hepatitis B core protein allosteric modulators” (priority 2014, dated 2019).
# Legend:
# [1] = system: HBV viral production in AD38 cells; assay: Viral load production in AD38 cells by quantitative PCR of the HBV core sequence in supernatant; format: cell-based; conditions: Hepatitis B virus, 144 h; 10 μM compound, 6 days at 37° C., viral load in supernatant compared against DMSO control wells; read-out: AD38 Viral Load (CpAM/DMSO %) at 10 μM
# Method in brief: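 AD38 cells seeded at 50,000/well, treated 6 days at 37° C with compound added as 10× solution in 10% DMSO. HBV core sequence in clarified supernatant quantified by TaqMan qPCR against known standards; viral load compared with DMSO control wells.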
# [2] = system: AD38 cells; assay: Viability of AD38 cells (Promega CellTiter-Glo) at the end of compound treatment; format: cell-based; conditions: 10 μM compound, 6 days, luminescence normalized against DMSO control wells (controls being 100%)
# Method in brief: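 AD38 cells seeded at 50,000/well received compound from a 10× solution in 10% DMSO and were incubated 6 days at 37° C. Viability was then read by CellTiter-Glo luminescence in tetracycline-free medium with 2% FBS and 1% DMSO, normalized to DMSO control wells (100%) and reported as percent viability.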
compound,measurement,setting,value
O=C(NCCc1cncnc1)c1cc2c(cc1F)Sc1ccccc1C(=O)N2 [Compound 1411],activity at 10 µM,[1],66%
same,AD38 Viability Normalized Result (CPAM/DMSO %) at 10 μM,[2],91%
O=C1Nc2cc(S(=O)(=O)Nc3ccccc3)ccc2Sc2ccccc21 [Compound 1412],activity at 10 µM,[1],48%
same,AD38 Viability Normalized Result (CPAM/DMSO %) at 10 μM,[2],87%
O=C1Nc2cc(S(=O)(=O)Nc3ccc(F)cc3)ccc2Sc2ccccc21 [Compound 1413],activity at 10 µM,[1],92%
same,AD38 Viability Normalized Result (CPAM/DMSO %) at 10 μM,[2],78%
O=C1Nc2cc(S(=O)(=O)NCc3ccccc3)ccc2Sc2ccccc21 [Compound 1414],activity at 10 µM,[1],39%
same,AD38 Viability Normalized Result (CPAM/DMSO %) at 10 μM,[2],89%
O=C1Nc2cc(S(=O)(=O)NCc3ccc(F)cc3)ccc2Sc2ccccc21 [Compound 1415],activity at 10 µM,[1],27%
same,AD38 Viability Normalized Result (CPAM/DMSO %) at 10 μM,[2],77%
O=C(NCCc1cnco1)c1ccc2c(c1)NC(=O)c1cc(F)ccc1S2 [Compound 1417],activity at 10 µM,[1],11%
same,AD38 Viability Normalized Result (CPAM/DMSO %) at 10 μM,[2],75%
O=C(NCCc1cncs1)c1ccc2c(c1)NC(=O)c1cc(F)ccc1S2 [Compound 1418],activity at 10 µM,[1],12%
same,AD38 Viability Normalized Result (CPAM/DMSO %) at 10 μM,[2],73%
"O=C(O)c1ccc(-c2cccc(NC(=O)c3ccc4c(c3)NC(=O)c3cc(F)ccc3S4)c2)cc1 [Compound 1419, 3′-(2-fluoro-11-oxo-10, 11-dihydrodibenzo [b,f] [1,4]thiazepine-8-carboxamido)-[1, 1′-biphenyl]-4-carboxylic acid]",activity at 10 µM,[1],113%
same,AD38 Viability Normalized Result (CPAM/DMSO %) at 10 μM,[2],89%
"COC(=O)c1ccc(-c2cccc(NC(=O)c3ccc4c(c3)NC(=O)c3cc(F)ccc3S4)c2)cc1 [Compound 1420, Methyl 3′-(2-fluoro-11-oxo-10, 11-dihydrodibenzo [b,f] [1,4]thiazepine-8-carboxamido)-[1,1′-biphenyl]-4-carboxylate]",activity at 10 µM,[1],29%
same,AD38 Viability Normalized Result (CPAM/DMSO %) at 10 μM,[2],86%
"O=C(O)c1cccc(-c2cccc(NC(=O)c3ccc4c(c3)NC(=O)c3cc(F)ccc3S4)c2)c1 [Compound 1421, 3′-(2-fluoro-11-oxo-10, 11-dihydrodibenzo [b,f] [1,4]thiazepine-8-carboxamido)-[1, 1′-biphenyl]-3-carboxylic acid]",activity at 10 µM,[1],78%
same,AD38 Viability Normalized Result (CPAM/DMSO %) at 10 μM,[2],95%
"COC(=O)c1cccc(-c2cccc(NC(=O)c3ccc4c(c3)NC(=O)c3cc(F)ccc3S4)c2)c1 [Compound 1422, Methyl 3′-(2-fluoro-11-oxo-10, 11-dihydrodibenzo [b,f] [1,4]thiazepine-8-carboxamido)-[1, 1′-biphenyl]-3-carboxylate]",activity at 10 µM,[1],64%
same,AD38 Viability Normalized Result (CPAM/DMSO %) at 10 μM,[2],95%
O=C(NCCc1cncnc1)c1ccc2c(c1)NC(=O)c1ccccc1[S+]2[O-] (stereo not drawn) [Compound 1423],activity at 10 µM,[1],37%
same,AD38 Viability Normalized Result (CPAM/DMSO %) at 10 μM,[2],91%
CCOC(=O)C(NC(=O)c1ccc2c(c1)NC(=O)c1cc(F)ccc1S2)c1ccccn1 (stereo not drawn) [Compound 1424],activity at 10 µM,[1],65%
same,AD38 Viability Normalized Result (CPAM/DMSO %) at 10 μM,[2],96%
O=C(NCc1cccnc1)c1ccc2c(c1)NC(=O)c1ccccc1[S+]2[O-] (stereo not drawn) [Compound 1427],activity at 10 µM,[1],7%
same,AD38 Viability Normalized Result (CPAM/DMSO %) at 10 μM,[2],85%
O=C(NCc1cncnc1)c1cc2c(cc1F)Sc1ccccc1C(=O)N2 [Compound 1428],activity at 10 µM,[1],28%
same,AD38 Viability Normalized Result (CPAM/DMSO %) at 10 μM,[2],93%
O=C(NCc1cncs1)c1cc2c(cc1F)Sc1ccccc1C(=O)N2 [Compound 1429],activity at 10 µM,[1],38%
same,AD38 Viability Normalized Result (CPAM/DMSO %) at 10 μM,[2],90%
O=C(NCc1cnco1)c1cc2c(cc1F)Sc1ccccc1C(=O)N2 [Compound 1430],activity at 10 µM,[1],56%
same,AD38 Viability Normalized Result (CPAM/DMSO %) at 10 μM,[2],92%
O=C1Nc2cc(S(=O)(=O)N3CCC(O)CC3)ccc2Sc2ccccc21 [Compound 1431],activity at 10 µM,[1],115%
same,AD38 Viability Normalized Result (CPAM/DMSO %) at 10 μM,[2],92%
O=C1Nc2cc(S(=O)(=O)N3CCCC3)ccc2Sc2ccccc21 [Compound 1432],activity at 10 µM,[1],79%
same,AD38 Viability Normalized Result (CPAM/DMSO %) at 10 μM,[2],91%
O=C1Nc2cc(S(=O)(=O)N3CCC(O)C3)ccc2Sc2ccccc21 (stereo not drawn) [Compound 1433],activity at 10 µM,[1],82%
same,AD38 Viability Normalized Result (CPAM/DMSO %) at 10 μM,[2],94%
O=C1Nc2cc(S(=O)(=O)N3CC(O)C3)ccc2Sc2ccccc21 [Compound 1434],activity at 10 µM,[1],85%
same,AD38 Viability Normalized Result (CPAM/DMSO %) at 10 μM,[2],96%
"O=C(Nc1cccc(-c2ccccc2C(=O)O)c1)c1ccc2c(c1)NC(=O)c1cc(F)ccc1S2 [Compound 1435, 3′-(2-fluoro-11-oxo-10, 11-dihydrodibenzo [b,f] [1,4]thiazepine-8-carboxamido)-[1, 1′-biphenyl]-2-carboxylic acid]",activity at 10 µM,[1],77%
same,AD38 Viability Normalized Result (CPAM/DMSO %) at 10 μM,[2],99%
"COC(=O)c1ccccc1-c1cccc(NC(=O)c2ccc3c(c2)NC(=O)c2cc(F)ccc2S3)c1 [Compound 1436, Methyl 3′-(2-fluoro-11-oxo-10, 11-dihydrodibenzo [b,f] [1,4]thiazepine-8-carboxamido)-[1, 1′-biphenyl]-2-carboxylate]",activity at 10 µM,[1],10%
same,AD38 Viability Normalized Result (CPAM/DMSO %) at 10 μM,[2],104%
O=C(Nc1cccc(-c2cncnc2)c1)c1ccc2c(c1)NC(=O)c1cc(F)ccc1S2 [Compound 1440],activity at 10 µM,[1],71%
same,AD38 Viability Normalized Result (CPAM/DMSO %) at 10 μM,[2],91%
O=C(Nc1cccc(-c2cncs2)c1)c1ccc2c(c1)NC(=O)c1cc(F)ccc1S2 [Compound 1441],activity at 10 µM,[1],28%
same,AD38 Viability Normalized Result (CPAM/DMSO %) at 10 μM,[2],90%
O=C(Nc1nncs1)c1ccc2c(c1)NC(=O)c1cc(F)ccc1S2 [Compound 1442],activity at 10 µM,[1],65%
same,AD38 Viability Normalized Result (CPAM/DMSO %) at 10 μM,[2],99%
O=C(Nc1ncc(Cl)s1)c1ccc2c(c1)NC(=O)c1cc(F)ccc1S2 [Compound 1443],activity at 10 µM,[1],64%
same,AD38 Viability Normalized Result (CPAM/DMSO %) at 10 μM,[2],95%
O=C(Nc1ccncc1)c1ccc2c(c1)NC(=O)c1ccccc1S2 [Compound 1444],activity at 10 µM,[1],6%
same,AD38 Viability Normalized Result (CPAM/DMSO %) at 10 μM,[2],65%
O=C(Nc1cccc(-c2ccccc2)c1)c1ccc2c(c1)NC(=O)c1ccccc1S2 [Compound 1445],activity at 10 µM,[1],24%
same,AD38 Viability Normalized Result (CPAM/DMSO %) at 10 μM,[2],38%
O=C(NCc1cncnc1)c1ccc2c(c1)NC(=O)c1ccccc1S2(=O)=O [Compound 1446],activity at 10 µM,[1],3%
same,AD38 Viability Normalized Result (CPAM/DMSO %) at 10 μM,[2],84%
O=C(NCCc1ccccn1)c1ccc2c(c1)NC(=O)c1ccccc1S2(=O)=O [Compound 1447],activity at 10 µM,[1],1%
same,AD38 Viability Normalized Result (CPAM/DMSO %) at 10 μM,[2],85%
O=C(NCCc1cccnc1)c1ccc2c(c1)NC(=O)c1ccccc1S2(=O)=O [Compound 1448],activity at 10 µM,[1],3%
same,AD38 Viability Normalized Result (CPAM/DMSO %) at 10 μM,[2],85%
O=C(NCc1cccnc1)c1ccc2c(c1)NC(=O)c1ccccc1S2(=O)=O [Compound 1449],activity at 10 µM,[1],2%
same,AD38 Viability Normalized Result (CPAM/DMSO %) at 10 μM,[2],86%
CC(C)NS(=O)(=O)c1ccc2c(c1)NC(=O)c1ccccc1S2 [Compound 1450],activity at 10 µM,[1],73%
same,AD38 Viability Normalized Result (CPAM/DMSO %) at 10 μM,[2],94%
O=C(Nc1cccc(-c2ccncn2)c1)c1ccc2c(c1)NC(=O)c1cc(F)ccc1S2 [Compound 1451],activity at 10 µM,[1],30%
same,AD38 Viability Normalized Result (CPAM/DMSO %) at 10 μM,[2],92%
COc1cccc(-c2cccc(NC(=O)c3ccc4c(c3)NC(=O)c3cc(F)ccc3S4)c2)c1 [Compound 1452],activity at 10 µM,[1],15%
same,AD38 Viability Normalized Result (CPAM/DMSO %) at 10 μM,[2],62%
O=C(Nc1cccc(-c2ccc(O)cc2)c1)c1ccc2c(c1)NC(=O)c1cc(F)ccc1S2 [Compound 1453],activity at 10 µM,[1],48%
same,AD38 Viability Normalized Result (CPAM/DMSO %) at 10 μM,[2],97%
O=C(Nc1nc(-c2ccccc2)co1)c1ccc2c(c1)NC(=O)c1cc(F)ccc1S2 [Compound 1454],activity at 10 µM,[1],27%
same,AD38 Viability Normalized Result (CPAM/DMSO %) at 10 μM,[2],95%
O=C(NCc1cncs1)c1ccc2c(c1)NC(=O)c1ccccc1S2(=O)=O [Compound 1455],activity at 10 µM,[1],3%
same,AD38 Viability Normalized Result (CPAM/DMSO %) at 10 μM,[2],89%
O=C(NCc1cnco1)c1ccc2c(c1)NC(=O)c1ccccc1S2(=O)=O [Compound 1456],activity at 10 µM,[1],15%
same,AD38 Viability Normalized Result (CPAM/DMSO %) at 10 μM,[2],101%
O=C(NCCc1cncnc1)c1ccc2c(c1)NC(=O)c1ccccc1S2(=O)=O [Compound 1457],activity at 10 µM,[1],28%
same,AD38 Viability Normalized Result (CPAM/DMSO %) at 10 μM,[2],92%
O=C(Nc1cccc(-c2ccccc2)c1)c1ccc2c(c1)NC(=O)c1ccccc1S2(=O)=O [Compound 1458],activity at 10 µM,[1],12%
same,AD38 Viability Normalized Result (CPAM/DMSO %) at 10 μM,[2],49%
Cc1c(C(=O)NCCc2ccccn2)ccc2c1NC(=O)c1ccccc1S2 [Compound 1459],activity at 10 µM,[1],4%
same,AD38 Viability Normalized Result (CPAM/DMSO %) at 10 μM,[2],92%
O=C(Nc1ccncc1)c1ccc2c(c1)NC(=O)c1ccccc1S2(=O)=O [Compound 1462],activity at 10 µM,[1],35%
same,AD38 Viability Normalized Result (CPAM/DMSO %) at 10 μM,[2],99%
O=C(Nc1ccncc1)c1ccc2c(c1)NC(=O)c1c(F)cccc1S2 [Compound 1463],activity at 10 µM,[1],31%
same,AD38 Viability Normalized Result (CPAM/DMSO %) at 10 μM,[2],97%
O=C(NCCc1cncnc1)c1ccc2c(c1)NC(=O)c1ccccc1N2Cc1ccccc1 [Compound 1464],activity at 10 µM,[1],49%
same,AD38 Viability Normalized Result (CPAM/DMSO %) at 10 μM,[2],98%
O=C(NCCc1ccc(-c2ccccc2)cc1)c1ccc2c(c1)NC(=O)c1c(F)cccc1S2 [Compound 1465],activity at 10 µM,[1],39%
same,AD38 Viability Normalized Result (CPAM/DMSO %) at 10 μM,[2],106%
O=C(NCCc1ccc(-c2ccccc2)cc1)c1ccc2c(c1)NC(=O)c1cccc(F)c1S2 [Compound 1466],activity at 10 µM,[1],7%
same,AD38 Viability Normalized Result (CPAM/DMSO %) at 10 μM,[2],88%
